According to US20220264910A1, “COMPOSITIONS COMPRISING AMINO ACIDS AND A FURTHER COMPONENT FOR THE SUPPLY OF AMINO ACIDS TO A MONOGASTRIC ANIMAL SUCH AS A HUMAN OR A PIG” (VETAGRO INTERNATIONAL S.R.L., priority 2019, published 2022):

Details: pig, in vivo, po

**Q.** For C/C=C/C=C/C(=O)O [sorbic acid], which “presence of the marker in the various intestinal tracts” value is on record?
**A.** present in the various intestinal tracts only when administered in encapsulated form in the lipid matrix

**Q.** With COc1cc(C=O)ccc1O [vanillin] as the compound, how does the “presence of the marker in the various intestinal tracts” value read?
**A.** present in the various intestinal tracts only when administered in encapsulated form in the lipid matrix
